# Tests used:
# [1] = DON analysis of DDGS sources and mixed diets of the pig trial; conditions: treated vs untreated DDGS
# Description: A treated mycotoxin in which the DON levels in DON-contaminated DDGS were reduced by the method described in Example 5 (1.5 gallons per minute of a 38% aqueous solution of SBS was supplied continuously into the feed line of the syrup tank) and samples of dried DDGS were collected, analyzed and tested for its effect on pig growth.
# A total of 247 growing pigs (55.3±4.6 lb.) were housed at a wean-to-finish facility, randomly allotted to 18 pens (13-14 pigs/pen) containing one 3-hole feeder 2 free-access nipple drinkers, and assigned to one of 3 experimental diets: control, DONDDGS, and treated-DDGS. All experimental diets were corn/soybean meal based containing 30% DDGS (low DON, DON contaminated, and treated DON DDGS, respectively; Table 1).
# All diets met or exceeded nutrient requirements for growing pigs based on NRC (2012) and provided ad libitum. Experimental diets were fed for 21 days. Samples of the DDGS and corn used in the diets were analyzed for DON. Samples of the mixed diets were collected at day 0 and 21 and analyzed for proximate analysis and DON.
# [2] = Laboratory treatment of corn ethanol syrup with bisulfite in a Parr 4560 reactor; DON measured by NEOGEN VERATOX for DON 2/3 kit
# Procedure: Encouraged by these initial test results, further testing was performed utilizing a design of experiments to determine an equation modeling the effect of time, temperature, and SBS in the treatment of syrup. Syrup from a corn ethanol biorefinery was obtained and processed in the laboratory. All thermal treatments were performed utilizing a Parr 4560 reactor and a combined total of 70 g of syrup and SBS per reaction. Reaction conditions were from 85° C. to 115° C.; for 2 to 6 hours; and 0 to 0.05 g sodium bisulfite per dry gram syrup. The results from this study indicated a correlation between the SBS loading and the reduction in syrup DON. The model predicts a greater than 85% reduction in syrup DON is likely if treatment in a commercial process syrup tank is utilized. It was calculated that at a plant that is currently producing DDGS with 14.5 ppm DON with a 95% reduction in syrup DON would produce DDGS with 4.6 ppm DON.
# Syrup from a corn ethanol biorefinery was obtained and processed in the laboratory. Treatment was performed utilizing a Parr 4560 reactor and a combined total of 70 g of syrup and SBS per reaction. The reaction condition was carried out at 50° C. for 120 minutes and varying amounts of sodium bisulfite per dry gram syrup. The DON was measured by NEOGEN™ VERATOX™ for DON 2/3 kit.
# Syrup from a corn ethanol biorefinery was obtained and processed in the laboratory. Treatment was performed utilizing a Parr 4560 reactor and a combined total of 70 g of syrup and SBS per reaction. The reaction condition was carried out at 85° C. for 30 minutes to 180 minutes using 0.048 grams sodium bisulfite per dry gram syrup. The DON was measured by NEOGEN™ VERATOX™ for DON 2/3 kit.
# Syrup from a corn ethanol biorefinery was obtained and processed in the laboratory using a Parr 4560 reactor and combined with either 0.048 grams of SBS or ammonium bisulfite per dry gram of syrup. Ammonium bisulfite was a 65% aqueous solution of 95% ammonium bisulfite and 5% potassium bisulfite. The doses of the two reagents used were molar equivalent bisulfite doses. The reaction condition was carried out at 85° C. for 30, 60 and 90 minutes.
compound,measurement,setting,value
"O=S([O-])O.[Na+] [SBS, sodium bisulfite]",reduction of DON content in DON-DDGS,[1],37%
same,DON in the treated syrup as SBS dose increased (FIG. 4),"[2]; 50° C., 120 minutes, varying amounts of sodium bisulfite per dry gram syrup",reduced
same,DON in the treated syrup (FIG. 5),"[2]; 85° C., 30 minutes dwell time, 0.048 grams sodium bisulfite per dry gram syrup",less than 1 ppm
same,reduction in syrup DON predicted by the model,"[2]; design-of-experiments model (time, temperature, SBS), treatment in a commercial process syrup tank",greater than 85%
same,DON reduction in the syrup stream,[2]; syrup treated with SBS at process temperatures for extended time periods,greater than 85%
